Measured values as given in US20110053832A1, “NATURAL ANTIMICROBIAL COMPOSITION” (KRAFT FOODS GLOBAL BRANDS LLC, priority 2009, published 2011).

Key:
Generic Yeast [1] = assay: Inoculation (challenge) study in creamy salad dressing, generic yeast; assay type: cell-based; details: creamy salad dressing emulsion; for Treatment Performance Generic Yeast LDIC (Log Difference in micro levels as compared to the Initial Count): negative values represent a degree of inhibition; for Treatment Performance Generic Yeast LDPC (Log Difference in micro levels as compared to the Positive Control without treatment): negative values represent degree of inhibition
Source text: (§1) Turning now to the table, provided herein are formulations of a natural antimicrobial tested using a water continuous emulsion with a creamy texture and flavor, such as a creamy style salad dressing. It is noted that not only other types of water continuous emulsions, but also many other types of foods would also benefit from the antimicrobial nature of these formulations. As shown, the emulsion is standardized for a ratio of acid-to-moisture and salt-to-moisture values of a minimum of about 1.5 and about 4.8, respectively. When the emulsion was inoculated individually with cocktails of lactic acid bacteria, general yeast, or acid-tolerant yeast (such as Z. bailii) at approximately 4.0 logs, the emulsion spoils with microbial growth up to 7.0 logs. The overall pH of the present formulations can be anywhere from about 2.0 to about 6.0. Lower pH can often inhibit microbial growth, irrespective of other antimicrobial agents present. In the present formulations however, it was observed that the presence of antimicrobial agents such as cultured milks and/or organic acid salts were effective antimicrobial inhibitors, even at higher pH levels. High concentrations of undissociated organic acids can produce greater microbial inhibition. Increasing pH is associated with decreasing concentrations of undissociated acid. Thus, the microbial inhibition in a food that approaches a pH of 6.0 is unexpected.
(§2) The label LDPC indicates the Log Difference in micro levels as compared to the Positive Control without treatment (negative values represent degree of inhibition). The label LDIC indicates the Log Difference in micro levels as compared to the Initial Count or micro level of that treatment (negative values represent a degree of inhibition).
(§3) Two levels of Ca-Acetate alone and in combination with two levels of nisin and a nisin containing cultured ingredient were compared to determine their effect on typical spoilage (generic) yeast, the preservative resistant yeast, Z. bailii, and Lactobacillus.
(§4) Specifically, the samples were subjected to three different inocula (at log CFU 3-4) that contained microorganisms previously shown to spoil salad dressing. These included a cocktail of seven strains comprising various genera of yeast not known to be preservative resistant, a three strain cocktail of the preservative resistant Zygosaccharomyces bailii, and a three strain cocktail of Lactobacillus spp. (L. plantarum, L. fermentum, L. buchneri). The sample was then incubated at 22 degrees Celsius, and tested weekly for four weeks for the presence of these microorganisms.

Lactobacillus [2] = assay: Inoculation (challenge) study in creamy salad dressing, Lactobacillus / lactic acid bacteria; assay type: cell-based, Lactobacillus spp. (L. plantarum, L. fermentum, L. buchneri); details: for Treatment Performance Lactobacillus LDIC (Log Difference in micro levels as compared to the Initial Count) / Treatment Performance Lactobacillus LDPC (Log Difference in micro levels as compared to the Positive Control without treatment): creamy salad dressing emulsion; for Treatment Performance Lactobacillus LDIC (Log Difference in micro levels as compared to the Initial Count): negative values represent a degree of inhibition; for Treatment Performance Lactobacillus LDPC (Log Difference in micro levels as compared to the Positive Control without treatment): negative values represent degree of inhibition
Source text: as §1, §2, §3, §4

Z. bailii = assay: Inoculation (challenge) study in creamy salad dressing, acid-tolerant yeast Z. bailii; assay type: cell-based, Zygosaccharomyces bailii; details: for Treatment Performance Z. bailii LDIC (Log Difference in micro levels as compared to the Initial Count) / Treatment Performance Z. bailii LDPC (Log Difference in micro levels as compared to the Positive Control without treatment): creamy salad dressing emulsion; for Treatment Performance Z. bailii LDIC (Log Difference in micro levels as compared to the Initial Count): negative values represent a degree of inhibition; for Treatment Performance Z. bailii LDPC (Log Difference in micro levels as compared to the Positive Control without treatment): negative values represent degree of inhibition; for inhibition of Z. bailii (in words): Experiments 1-4
Source text: as §1, §2, §3, §4

Generic Yeast [3] = assay: Inoculation (challenge) study in creamy salad dressing, generic yeast; assay type: cell-based; details: Experiments 1-4
Lactobacillus [4] = assay: Inoculation (challenge) study in creamy salad dressing, Lactobacillus / lactic acid bacteria; assay type: cell-based, Lactobacillus spp. (L. plantarum, L. fermentum, L. buchneri); details: Experiments 1-4
[5] = listed as three percent Ca-Acetate
[6] = listed as Three percent Na-Acetate

Compound	Treatment Performance Generic Yeast LDIC (Log Difference in micro levels as compared to the Initial Count) (Generic Yeast [1]) [Log]	Treatment Performance Generic Yeast LDPC (Log Difference in micro levels as compared to the Positive Control without treatment) (Generic Yeast [1]) [Log]	Treatment Performance Lactobacillus LDIC (Log Difference in micro levels as compared to the Initial Count) (Lactobacillus [2]) [Log]	Treatment Performance Lactobacillus LDPC (Log Difference in micro levels as compared to the Positive Control without treatment) (Lactobacillus [2]) [Log]	Treatment Performance Z. bailii LDIC (Log Difference in micro levels as compared to the Initial Count) (Z. bailii) [Log]	Treatment Performance Z. bailii LDPC (Log Difference in micro levels as compared to the Positive Control without treatment) (Z. bailii) [Log]	also measured
Nisin [Nisin (high)]	3	1.5	0	−2.5	2	0	–
Nisin [Nisin (mid)]	3.5	1.5	−1	−2.5	2	0	–
CC(=O)[O-].CC(=O)[O-].[Ca+2] [3% Ca acetate, calcium (Ca) acetate]	−1	−3	−2.5	−2.5	1.5	0.5	Treatment Performance Generic Yeast LDIC (Log Difference in micro levels as compared to the Initial Count) (Generic Yeast [1]; listed as Ca acetate (high)): −2 Log; Treatment Performance Generic Yeast LDPC (Log Difference in micro levels as compared to the Positive Control without treatment) (Generic Yeast [1]; listed as Ca acetate (high)): −4 Log; inhibition of lactic acid bacteria / Lactobacillus (in words) (Lactobacillus [2]; Experiments 1-4): inhibited the growth; Treatment Performance Lactobacillus LDIC (Log Difference in micro levels as compared to the Initial Count) (Lactobacillus [2]; listed as Ca acetate (high)): 0.5 Log; Treatment Performance Lactobacillus LDPC (Log Difference in micro levels as compared to the Positive Control without treatment) (Lactobacillus [2]; listed as Ca acetate (high)): 1.5 Log; inhibition of Z. bailii (in words) (Z. bailii; listed as 3 percent Ca-Acetate): needed to inhibit; inhibition of Z. bailii (in words) (Z. bailii; [5]): but not Z. bailii; Treatment Performance Z. bailii LDIC (Log Difference in micro levels as compared to the Initial Count) (Z. bailii; listed as Ca acetate (high)): 0.5 Log; Treatment Performance Z. bailii LDPC (Log Difference in micro levels as compared to the Positive Control without treatment) (Z. bailii; listed as Ca acetate (high)): −1.5 Log; inhibition of general yeast (in words) (Generic Yeast [3]; [5]): inhibited the growth
CC(=O)[O-].CC(=O)[O-].[Ca+2] [Ca acetate (mid), calcium (Ca) acetate]	−0.5	−2.5	−1.5	−0.5	2	0.5	inhibition of general yeast (in words) (Generic Yeast [3]; listed as 1.5 percent Ca-Acetate): needed to inhibit
CC(=O)[O-].[Na+] [3% Na acetate, sodium (Na) acetate]	−3.5	0	−3.5	0	−0.5	−2	Treatment Performance Generic Yeast LDIC (Log Difference in micro levels as compared to the Initial Count) (Generic Yeast [1]; listed as 3% Na Ac): 1 Log; Treatment Performance Generic Yeast LDPC (Log Difference in micro levels as compared to the Positive Control without treatment) (Generic Yeast [1]; listed as 3% Na Ac): −0.5 Log; inhibition of Z. bailii (in words) (Z. bailii; listed as 3 percent Na-Acetate): significant antimycotic inhibition; inhibition of Z. bailii (in words) (Z. bailii; [6]): inhibited all of the tested spoilage organisms; Treatment Performance Z. bailii LDIC (Log Difference in micro levels as compared to the Initial Count) (Z. bailii; listed as 3% Na Ac): −1 Log; Treatment Performance Z. bailii LDPC (Log Difference in micro levels as compared to the Positive Control without treatment) (Z. bailii; listed as 3% Na Ac): −3 Log; inhibition of general yeast (in words) (Generic Yeast [3]; listed as 3 percent Na-Acetate): did not inhibit; inhibition of general yeast (in words) (Generic Yeast [3]; [6]): inhibited all of the tested spoilage organisms; inhibition of lactic acid bacteria / Lactobacillus (in words) (Lactobacillus [4]; listed as 3 percent Na-Acetate): did not inhibit; inhibition of lactic acid bacteria / Lactobacillus (in words) (Lactobacillus [4]; [6]): inhibited all of the tested spoilage organisms
